Patent US11696917B2, “Agent enhancing antitumor effect using pyrazolo[3,4-d]pyrimidine compound” (TAIHO PHARMACEUTICAL CO., LTD., priority 2017, dated 2023)
Like-named read-outs stand apart in the source and are kept apart here.

How the values were obtained:
[1] = tested on: human stomach cancer cell line NCI-N87; test: Combination of Compound 1 and capecitabine (in vivo), subcutaneous tumor in nude mice; parameters: species or system nude mouse (BALB/cAJcl-nu/nu); conditions: for T/C (%): Day 15
Experimental: A human stomach cancer cell line NCI-N87 was obtained from American Type Culture Collection (ATCC). The cell line was cultured at 37° C. in a 5% CO2 incubator using RPMI-1640 (containing 4.5 g/L glucose, 10 mM HEPES, and 1 mM sodium pyruvate) (Wako Pure Chemical Industries, Ltd.) medium containing 10% fetal bovine serum (FBS).
The NCI-N87 cells were resuspended at a concentration of 8×10^7 cells/mL in PBS.
The cell suspension was subcutaneously transplanted in an amount of 8×10^6 cells/0.1 mL to the right chest of a 6-week-old nude mouse (BALB/cAJcl-nu/nu, CLEA Japan, Inc.) using a 1 mL syringe for tuberculin and a 25 G injection needle.
Electronic calipers were used in tumor size measurement.

[2] = molecular target: purified recombinant human HER2 protein (Homo sapiens (Human), UniProt P04626); test: Measurement of inhibitory effect on HER2-phosphorylating activity (in vitro); assay type: biochemical; conditions: ATP 6 μM, 25° C., 40 minutes
Chain of purified recombinant human HER2 protein (P04626 23-1255): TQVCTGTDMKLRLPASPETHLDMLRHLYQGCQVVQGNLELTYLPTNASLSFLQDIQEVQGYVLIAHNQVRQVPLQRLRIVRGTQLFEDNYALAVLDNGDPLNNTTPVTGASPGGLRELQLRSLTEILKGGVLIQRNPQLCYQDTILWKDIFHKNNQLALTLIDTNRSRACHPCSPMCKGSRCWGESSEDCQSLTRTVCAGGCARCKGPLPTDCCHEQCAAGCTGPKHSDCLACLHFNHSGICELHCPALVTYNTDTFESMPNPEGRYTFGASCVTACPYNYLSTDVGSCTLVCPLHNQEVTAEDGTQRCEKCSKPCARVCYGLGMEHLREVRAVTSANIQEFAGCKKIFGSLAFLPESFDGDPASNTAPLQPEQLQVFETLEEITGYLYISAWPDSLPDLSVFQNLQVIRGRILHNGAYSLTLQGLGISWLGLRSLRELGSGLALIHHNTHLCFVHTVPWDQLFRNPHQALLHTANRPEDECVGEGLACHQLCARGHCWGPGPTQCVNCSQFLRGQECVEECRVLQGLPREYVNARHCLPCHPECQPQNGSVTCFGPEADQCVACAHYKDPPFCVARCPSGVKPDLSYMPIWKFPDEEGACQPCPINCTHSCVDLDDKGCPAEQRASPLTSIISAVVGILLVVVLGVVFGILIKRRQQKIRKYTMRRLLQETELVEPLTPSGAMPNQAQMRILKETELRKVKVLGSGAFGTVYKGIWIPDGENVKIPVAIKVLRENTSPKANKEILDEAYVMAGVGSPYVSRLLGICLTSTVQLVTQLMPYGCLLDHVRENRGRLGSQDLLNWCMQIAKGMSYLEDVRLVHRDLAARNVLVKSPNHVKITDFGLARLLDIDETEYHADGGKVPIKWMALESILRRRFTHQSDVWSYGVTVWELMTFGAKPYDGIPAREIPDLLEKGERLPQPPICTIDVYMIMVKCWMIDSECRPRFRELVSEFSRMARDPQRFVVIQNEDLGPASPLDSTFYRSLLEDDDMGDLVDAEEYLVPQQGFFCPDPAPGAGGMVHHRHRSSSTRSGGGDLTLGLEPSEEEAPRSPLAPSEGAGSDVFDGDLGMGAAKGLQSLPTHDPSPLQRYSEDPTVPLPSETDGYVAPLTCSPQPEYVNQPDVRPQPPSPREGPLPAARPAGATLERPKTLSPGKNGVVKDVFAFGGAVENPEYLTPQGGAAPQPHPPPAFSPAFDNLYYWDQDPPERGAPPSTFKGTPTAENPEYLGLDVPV
Excerpt: The purified recombinant human HER2 protein used in the test was purchased from Carna Biosciences, Inc.
For the inhibitory activity measurement of each compound, the synthesis example compound was first serially diluted with dimethyl sulfoxide (DMSO).

[3] = tested on: EGFR-overexpressing highly activated human epithelioid cancer cell line A431 cells; test: Cytostatic activity against EGFR-expressing cell line (A431), CellTiter-Glo; assay type: cell-based; conditions: 3-day culture, read-out: A431 cell growth inhibitory activity IC50 value
Excerpt: (§1) HER2-overexpressing human stomach cancer cell line NCI-N87 cells were suspended in RPMI1640 medium (manufactured by Life Technologies Corp.) containing 10% fetal bovine serum. Meanwhile, EGFR-overexpressing highly activated human epithelioid cancer cell line A431 cells were suspended in DMEM, high glucose medium (manufactured by Life Technologies Corp.) containing 10% fetal bovine serum. Subsequently, each cell suspension was inoculated to each well of a 384-well flat-bottom microplate and cultured at 37° C. for 1 day in an incubator containing 5% carbon dioxide. The synthesis example compound was dissolved in DMSO, and the test compound was diluted into a concentration of 500 times the final concentration using DMSO. The solution of the test compound in DMSO was diluted with the medium used in the suspension of each cell line, and this solution was added at a final concentration of DMSO of 0.2% to each well of the cell culture plate, followed by further culture at 37° C. for 3 days in an incubator containing 5% carbon dioxide.
(§2) Rate of growth inhibition (%)=(C−T)/(C)×100 T: Luminescence intensity of a well supplemented with the test compound C: Luminescence intensity of a well not supplemented with the test compound

[4] = tested on: HER2-overexpressing human stomach cancer cell line NCI-N87 cells; test: Cytostatic activity against HER2-expressing cell line (NCI-N87), CellTiter-Glo; assay type: cell-based; conditions: 3-day culture, read-out: NCI-N87 cell growth inhibitory activity IC50 value
Excerpt: as §1

[5] = tested on: HER2-overexpressing human breast cancer cell line SK-BR-3 cells; test: Cytostatic activity against HER2-expressing cell line (SK-BR-3), CellTiter-Glo; assay type: cell-based; conditions: 3-day culture, read-out: SK-BR-3 cell growth inhibitory activity IC50 value
Experimental: as §2
as §1, with “breast” for “stomach”, “SK-BR-3” for “NCI-N87”, “McCoy's 5a” for “RPMI1640”, “The” for “Meanwhile, EGFR-overexpressing highly activated human epithelioid cancer cell line A431 cells were suspended in DMEM, high glucose medium (manufactured by Life Technologies Corp.) containing 10% fetal bovine serum. Subsequently, each”, “into” for “into a concentration of”, “times as high concentration as” for “times”

[6] = Capecitabine 359 mg/kg/day p.o. Days 1-14
[7] = Capecitabine 809 mg/kg/day p.o. Days 1-14

Structure (SMILES): CCCCCOC(=O)Nc1nc(=O)n([C@@H]2O[C@H](C)[C@@H](O)[C@H]2O)cc1F [Capecitabine, capecitabine]
- BWC (%) Day 15 Mean [1, 6]: 7.51%
- RTV Day 15 Mean ± SD [1, 6]: 1.26 ± 0.21
- T/C (%) [1, 6]: 30.4%
- BWC (%) Day 15 Mean [1, 7]: −5.30%
- RTV Day 15 Mean ± SD [1, 7]: 1.12 ± 0.18
- T/C (%) [1, 7]: 27.1%
- RTV on Day 15 compared with the control group (in words) ([1]; Dunnett's test): significantly lower

Structure (SMILES): C=CC(=O)N1CCC[C@@H](n2nc(C(=O)Nc3cc(Br)c(CC(=O)N(C)C)cc3C)c3c(N)ncnc32)C1 [compound 1]
- IC50 [2]: 10 nM
- IC50 [3]: 2320 nM
- IC50 [4]: 19 nM
- IC50 [5]: 20 nM

Structure (SMILES): C=CC(=O)N1CCC[C@@H](n2nc(C(=O)Nc3cc(C)c(CC(=O)N(C)C)cc3Cl)c3c(N)ncnc32)C1 [compound 2]
- IC50 [2]: 8.3 nM
- IC50 [3]: 2670 nM
- IC50 [4]: 45 nM
- IC50 [5]: 30 nM

Structure (SMILES): C=CC(=O)N1CCC[C@@H](n2nc(C(=O)Nc3ccc(CC(=O)N(C)C)c(C)c3Cl)c3c(N)ncnc32)C1 [compound 3]
- IC50 [2]: 7.1 nM
- IC50 [3]: 3370 nM
- IC50 [4]: 27 nM
- IC50 [5]: 9 nM

Structure (SMILES): C=CC(=O)N1CCC[C@@H](n2nc(C(=O)Nc3ccc(CC(=O)N(C)C)cc3C)c3c(N)ncnc32)C1 [compound 4]
- IC50 [2]: 12 nM
- IC50 [3]: 2610 nM
- IC50 [4]: 12 nM
- IC50 [5]: 16 nM

Structure (SMILES): C=CC(=O)N1CCC[C@@H](n2nc(C(=O)Nc3ccc(CC(=O)N(C)C)c4ccccc34)c3c(N)ncnc32)C1 [compound 5]
- IC50 [3]: 1230 nM
- IC50 [4]: 6 nM
- IC50 [5]: 11 nM

Structure (SMILES): C=CC(=O)N1CCC[C@@H](n2nc(C(=O)Nc3ccc(CC(=O)N(C)C)cc3Cl)c3c(N)ncnc32)C1 [compound 6]
- IC50 [2]: 4 nM
- IC50 [3]: 1290 nM
- IC50 [4]: 7 nM
- IC50 [5]: 14 nM

Structure (SMILES): C=CC(=O)N1CCC[C@@H](n2nc(C(=O)Nc3ccc(CC(=O)N(C)C)cc3OC)c3c(N)ncnc32)C1 [compound 7]
- IC50 [2]: 7.1 nM
- IC50 [3]: 2800 nM
- IC50 [4]: 12 nM
- IC50 [5]: 31 nM

Structure (SMILES): C=CC(=O)N1CCC[C@@H](n2nc(C(=O)Nc3cc(F)c(CC(=O)N(C)C)cc3C)c3c(N)ncnc32)C1 [compound 10]
- IC50 [2]: 13 nM
- IC50 [3]: 1410 nM
- IC50 [4]: 6 nM
- IC50 [5]: 21 nM

Structure (SMILES): C=CC(=O)N1CCC[C@@H](n2nc(C(=O)Nc3ccc(CC(=O)N(C)C)c(Cl)c3OC)c3c(N)ncnc32)C1 [compound 11]
- IC50 [2]: 7.5 nM
- IC50 [3]: 961 nM
- IC50 [4]: 4 nM
- IC50 [5]: 12 nM

Structure (SMILES): C=CC(=O)N1CCC[C@@H](n2nc(C(=O)Nc3ccc(CC(=O)N(C)C)c(C)c3C)c3c(N)ncnc32)C1 [compound 13, (R)-1-(1-acryloylpiperidin-3-yl)-4-amino-N-(4-(2-(dimethylamino)-2-oxoethyl)-2,3-dimethylphenyl)-1H-pyrazolo[3,4-d]pyrimidine-3-carboxamide]
- IC50 ([3]; Homo sapiens, A-431, 72 h): 1210 nM
- IC50 ([4]; Homo sapiens, NCI-N87, 72 h): 5 nM
- IC50 ([5]; Homo sapiens, SK-BR-3, 72 h): 9 nM

Structure (SMILES): C=CC(=O)N1CCC[C@@H](n2nc(C(=O)Nc3ccc(CC(=O)N(C)C)c(F)c3OC)c3c(N)ncnc32)C1 [compound 14]
- IC50 [2]: 4.6 nM
- IC50 [3]: 486 nM
- IC50 [4]: 4 nM
- IC50 [5]: 10 nM

Structure (SMILES): C=CC(=O)N1CCC[C@@H](n2nc(C(=O)Nc3ccc(CC(=O)N(C)C)cc3OC(F)F)c3c(N)ncnc32)C1 [compound 15]
- IC50 [2]: 8.6 nM
- IC50 [3]: 2270 nM
- IC50 [4]: 20 nM
- IC50 [5]: 30 nM

Structure (SMILES): C=CC(=O)N1CCC[C@@H](n2nc(C(=O)Nc3ccc(CC(=O)N(C)C)cc3OCF)c3c(N)ncnc32)C1 [compound 16]
- IC50 [2]: 10 nM
- IC50 [3]: 3460 nM
- IC50 [4]: 27 nM
- IC50 [5]: 40 nM

Structure (SMILES): C=CC(=O)N1CCC[C@@H](n2nc(C(=O)Nc3ccc(CC(=O)N(C)C)cc3Br)c3c(N)ncnc32)C1 [compound 17]
- IC50 [2]: 5.9 nM
- IC50 [3]: 910 nM
- IC50 [4]: 5 nM
- IC50 [5]: 13 nM

Structure (SMILES): C=CC(=O)N1CCC[C@@H](n2nc(C(=O)Nc3cc(Cl)c(CC(=O)N(C)C)cc3C)c3c(N)ncnc32)C1 [compound 19]
- IC50 [2]: 10 nM
- IC50 [3]: 1260 nM
- IC50 [4]: 12 nM
- IC50 [5]: 24 nM

Structure (SMILES): C=CC(=O)N1CCC[C@@H](n2nc(C(=O)Nc3ccc(OC(=O)N(C)C)cc3C)c3c(N)ncnc32)C1 [compound 26]
- IC50 [2]: 7 nM
- IC50 [3]: 984 nM
- IC50 [4]: 5 nM
- IC50 [5]: 8 nM

Structure (SMILES): C=CC(=O)N1CCC[C@@H](n2nc(C(=O)Nc3ccc(OC(=O)N(C)C)cc3Cl)c3c(N)ncnc32)C1 [compound 27]
- IC50 [3]: 1510 nM
- IC50 [4]: 5 nM
- IC50 [5]: 9 nM

Structure (SMILES): C=CC(=O)N1CCC[C@@H](n2nc(C(=O)Nc3ccc(OC(=O)N(C)C)c(Cl)c3)c3c(N)ncnc32)C1 [compound 29]
- IC50 [2]: 6.5 nM
- IC50 [3]: 2220 nM
- IC50 [4]: 46 nM
- IC50 [5]: 44 nM

Structure (SMILES): C=CC(=O)N1CCC[C@@H](n2nc(C(=O)Nc3ccc(OC(=O)N(C)C)c(C)c3)c3c(N)ncnc32)C1 [compound 30]
- IC50 [3]: 2350 nM
- IC50 [4]: 23 nM
- IC50 [5]: 39 nM

Structure (SMILES): C=CC(=O)N1CCC[C@@H](n2nc(C(=O)Nc3ccc(OC(=O)N(C)C)c(C)c3C)c3c(N)ncnc32)C1 [compound 32]
- IC50 [3]: 1920 nM
- IC50 [4]: 7 nM
- IC50 [5]: 14 nM

Structure (SMILES): C=CC(=O)N1CCC[C@@H](n2nc(C(=O)Nc3cc(C)c(OC(=O)N(C)C)cc3C)c3c(N)ncnc32)C1 [compound 38]
- IC50 [3]: 1040 nM
- IC50 [4]: 8 nM
- IC50 [5]: 12 nM

Structure (SMILES): C=CC(=O)N1CC(F)C[C@@H](n2nc(C(=O)Nc3ccc(CC(=O)N(C)C)cc3Cl)c3c(N)ncnc32)C1 (stereo partly drawn) [compound 76, 1-((3R)-1-acryloyl-5-fluoropiperidin-3-yl)-4-amino-N-(2-chloro-4-(2-(dimethylamino)-2-oxoethyl)phenyl)-1H-pyrazolo[3,4-d]pyrimidine-3-carboxamide]
- IC50 ([3]; Homo sapiens, A-431, 72 h): 2070 nM
- IC50 ([5]; Homo sapiens, SK-BR-3, 72 h): 8 nM

Structure (SMILES): C=CC(=O)N1CC(F)C[C@@H](n2nc(C(=O)Nc3ccc(CC(=O)N(C)C)c(C)c3C)c3c(N)ncnc32)C1 (stereo partly drawn) [compound 77, 1-((3R)-1-acryloyl-5-fluoropiperidin-3-yl)-4-amino-N-(4-(2-(dimethylamino)-2-oxoethyl)-2,3-dimethylphenyl)-1H-pyrazolo[3,4-d]pyrimidine-3-carboxamide]
- IC50 ([3]; Homo sapiens, A-431, 72 h): 2460 nM
- IC50 ([5]; Homo sapiens, SK-BR-3, 72 h): 12 nM
